In patent US10934310B2, “Inhibitors of Bruton's tyrosine kinase and method of their use” (JANSSEN PHARMACEUTICA NV, priority 2015, dated 2021):

biological target: unphosphorylated-BTK kinase domain (UP-BTK), GST-tagged human BTK (389-659aa) (Homo sapiens (Human), UniProt Q06187); assay: BTK Kinase Lanthascreen Binding Assay; settings: Lanthascreen binding, 60 minutes incubation; pIC50 = negative log of the IC50 in molar
Experimental: BTK Kinase Lanthascreen Binding Assay:
A BTK kinase lanthascreen binding assay monitors compound binding to unphosphorylated-BTK kinase domain (UP-BTK), by competing with a fluorescent labeled tracer. […] Data were analyzed using Xlfit™ version 5.3 from ID Business Solutions (Guildford), Microsoft Excel add-in. pIC50 refers to the negative log of the IC50 in molar.

Chain of unphosphorylated-BTK kinase domain (UP-BTK), GST-tagged human BTK (389-659aa) (Q06187 389-659): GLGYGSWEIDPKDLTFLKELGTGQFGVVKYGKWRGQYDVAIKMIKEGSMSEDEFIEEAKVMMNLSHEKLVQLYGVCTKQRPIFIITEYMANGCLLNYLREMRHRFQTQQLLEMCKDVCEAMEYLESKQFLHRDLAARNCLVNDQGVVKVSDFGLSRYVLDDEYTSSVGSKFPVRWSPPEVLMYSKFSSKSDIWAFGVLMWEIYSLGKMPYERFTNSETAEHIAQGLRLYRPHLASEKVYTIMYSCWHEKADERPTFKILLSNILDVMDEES

BTK_I_binding pIC50 | Structure (SMILES)
6.11 | CCC(=O)N[C@H]1CCCC[C@H]1NC(=O)c1sc2nccc3c2c1NC(=O)N3c1ccc(Oc2ccccc2)nc1C (single isomer, unassigned) [Example 343, 5-(*S)-(2-Methyl-6-phenoxypyridin-3-yl)-4-oxo-N-((1R,2S)-2-propionamidocyclohexyl)-4,5-dihydro-3H-1-thia-3,5,8-triazaacenaphthylene-2-carboxamide]
6.38 | Cc1cc(Oc2ccccc2)ccc1N1C(=O)Nc2c(C(=O)N[C@H]3CCC[C@H]3N)sc3nccc1c23 (single isomer, unassigned) [Example 452, N-((1S,2R)-2-Aminocyclopentyl)-5-(*S)-(2-methyl-4-phenoxyphenyl)-4-oxo-4,5-dihydro-3H-1-thia-3,5,8-triazaacenaphthylene-2-carboxamide]

Continued, compound first:

Structure (SMILES) | BTK_I_binding pIC50
C=CC(=O)N[C@H]1CCCC[C@H]1NC(=O)c1sc2nccc3c2c1NC(=O)N3c1cnc(OC2CCCC2)cc1C (single isomer, unassigned) [Example 309, N-((1R,2S)-2-Acrylamidocyclohexyl)-5-(*S)-(6-(cyclopentyloxy)-4-methylpyridin-3-yl)-4-oxo-4,5-dihydro-3H-1-thia-3,5,8-triazaacenaphthylene-2-carboxamide] | 7.91
C=CC(=O)N[C@H]1CCC[C@H]1NC(=O)c1sc2nccc3c2c1NC(=O)N3c1ccc(Oc2ccc(C)nc2)cc1 [Example 370, N-((1R,2S)-2-Acrylamidocyclopentyl)-5-(4-((6-methylpyridin-3-yl)oxy)phenyl)-4-oxo-4,5-dihydro-3H-1-thia-3,5,8-triazaacenaphthylene-2-carboxamide] | 7.79
C=CC(=O)N[C@H]1CCC[C@H]1NC(=O)c1sc2nccc3c2c1NC(=O)N3c1ccnc(-c2cccnc2)c1 [Example 317, 5-([2,3′-Bipyridin]-4-yl)-N-((1R,2S)-2-acrylamidocyclopentyl)-4-oxo-4,5-dihydro-3H-1-thia-3,5,8-triazaacenaphthylene-2-carboxamide] | 7.74

same assay, conditions: compound, 50 nM Tracer 236, 2 nM anti-GST antibody, 60 minutes; pIC50 = negative log of the IC50 in molar

BTK_I_binding pIC50 | Structure (SMILES)
6.72 | Cc1cc(Oc2ccccc2)ccc1N1C(=O)Nc2c(C(=O)N[C@@H]3CC[C@H](N)C3)sc3nccc1c23 (single isomer, unassigned) [Example 240, N-((1R,3S)-3-Aminocyclopentyl)-5-(*S)-(2-methyl-4-phenoxyphenyl)-4-oxo-4,5-dihydro-3H-1-thia-3,5,8-triazaacenaphthylene-2-carboxamide]
6.51 | Cc1cc(Oc2ccccc2)ncc1N1C(=O)Nc2c(C(=O)N[C@@H]3CCCC[C@H]3N)sc3nccc1c23 (single isomer, unassigned) [Example 255, N-((1R,2R)-2-Aminocyclohexyl)-5-(*S)-(4-methyl-6-phenoxypyridin-3-yl)-4-oxo-4,5-dihydro-3H-1-thia-3,5,8-triazaacenaphthylene-2-carboxamide]

Second part, the compound before the results:

Structure (SMILES) | BTK_I_binding pIC50
N[C@H]1CCC[C@@H]1NC(=O)c1sc2nccc3c2c1NC(=O)N3c1ccc(Oc2ccccc2)cc1 [Example 148, N-((1S,2S)-2-Aminocyclopentyl)-4-oxo-5-(4-phenoxyphenyl)-4,5-dihydro-3H-1-thia-3,5,8-triazaacenaphthylene-2-carboxamide] | 6.47
C=CC(=O)NC1CCC[C@H]1NC(=O)c1sc2nccc3c2c1NC(=O)N3c1ccnc(-c2ccccc2)c1 (stereo in doubt) [Example 197, N-((1R,2R)-2-Acrylamidocyclopentyl)-4-oxo-5-(2-phenylpyridin-4-yl)-4,5-dihydro-3H-1-thia-3,5,8-triazaacenaphthylene-2-carboxamide] | 7.48
C=CC(=O)N[C@H]1CCC[C@H]1NC(=O)c1sc2nccc3c2c1NC(=O)N3c1cc(-c2ccccc2)ncn1 [Example 167, N-((1R,2S)-2-Acrylamidocyclopentyl)-4-oxo-5-(6-phenylpyrimidin-4-yl)-4,5-dihydro-3H-1-thia-3,5,8-triazaacenaphthylene-2-carboxamide] | 8.34
